Measured values as given in patent US9975853B2, “Tetrahydroisoquinolinone derivatives and their use in the inhibition of the HSP70 protein” (Julius-Maximilians-Universitaet Wuerzburg, priority 2014, dated 2018).
“Also recorded” adds a separate entry of the source.

Columns and labels:
[1] = test system: apoptosis-inducing factor (AIF); test: Apoptosis assay: nuclear translocation of AIF in INA-6 cells (Western blot); assay type: cell-based, human; conditions: INA-6, 0.6 μM, 8 hours, nuclear pellets
Method: Apoptosis Assays. Hsp70-dependent prevention of apoptosis was investigated by analyses of the apoptosis-inducing factors (AIF) and of the caspases 9 and 3 in INA-6 cells. INA-6 cells were treated with 0.6 μM of compound trans-7b for 8 hours prior to analyze nuclear translocation of AIF. Staining of the nuclear protein lamin A was used as a loading control. […] Analysis of cleavage of the bona fide caspase substrate PARP served as a control for caspase activation. Co-treatment with the pan-caspase inhibitor Z-VAD-FMK (50 μM) was employed as another specificity control.
Western Blot Analysis. Protein expression levels were determined with Western blotting procedures (M. Chatterjee, et al., Blood 2002, 100, 3311-3318). Following separation by SDS-PAGE, proteins were transferred onto nitrocellulose membranes (Schleicher & Schuell, Dassel, Germany) and stained with antibodies against Hsp72, Hsp73, Hsp90 (all from Enzo Life Science, Lörrach, Germany), AIF, lamin A, caspases 9 and 3, PARP (all from Santa Cruz, Heidelberg, Germany). […] According to an established HSP72/73-dependent client protein signature and its role for survival in MM, the proposed anti-HSP72/73 effect of trans-7b in the INA-6 multiple myeloma (MM) cell line model was evaluated. […] Lysates were cleared by centrifugation, measured by quantitative protein assay (Bio-Rad, München, Germany) and subjected to SDS gel electrophoresis. […]

HSP72 = target: T1, HSP72 (Homo sapiens, UniProt P0DMV8); test: Western blot analysis of HSP72 expression in INA-6 cells; assay type: cell-based; conditions: INA-6, 0.6 μM, with Z-VAD-FMK 50 μM
T1 construct: endogenous in cells; host or cells: INA-6 multiple myeloma cells
Method: Western Blot Analysis. Protein expression levels were determined with Western blotting procedures (M. Chatterjee, et al., Blood 2002, 100, 3311-3318). Following separation by SDS-PAGE, proteins were transferred onto nitrocellulose membranes (Schleicher & Schuell, Dassel, Germany) and stained with antibodies against Hsp72, Hsp73, Hsp90 (all from Enzo Life Science, Lörrach, Germany), AIF, lamin A, caspases 9 and 3, PARP (all from Santa Cruz, Heidelberg, Germany). An anti-α tubulin antibody (Sigma, Deisenhofen, Germany) was employed to assess equal loading. Secondary antibodies used were anti-rat (Enzo Life Science), anti-rabbit and anti-mouse (both from GE Healthcare, Little Chalfont, UK). […] The heat shock proteins HSP72 and HSP73 critically interact with HSP90 in order to mediate an essential chaperone function for a multitude of proteins including various signaling intermediates. According to an established HSP72/73-dependent client protein signature and its role for survival in MM, the proposed anti-HSP72/73 effect of trans-7b in the INA-6 multiple myeloma (MM) cell line model was evaluated. […] Lysates were cleared by centrifugation, measured by quantitative protein assay (Bio-Rad, München, Germany) and subjected to SDS gel electrophoresis. […]

INA-6 cells = test: Viability of INA-6 cells under concomitant treatment with HSP90 inhibitor NVP-AUY922; assay type: cell-based, human; conditions: AUY922 7.5 nM plus trans-7b 3.5 μM, sublethal concentrations
Method: The heat shock protein HSP90, which critically cooperates with HSP72 and HSP73 to mediate a chaperone function for a multitude of proteins, is regarded as a reasonable therapeutic target in MM. […] Therefore, potential effects of a concomitant treatment of trans-7b with the HSP90 inhibitor NVP-AUY922 on viability of INA-6 cells were analyzed. INA-6 cells were incubated either with DMSO (as a solvent control), sublethal concentrations of AUY922 (7.5 nM) or trans-7b (3.5 μM) or with a combination of both. Viability was measured by Annexin V-FITC/propidium iodide double staining (BenderMedSystems, Vienna, Austria) according to the manufacturer's instructions. Cells were washed in PBS, incubated for 15 minutes in 100 ml binding buffer (10 mM HEPES/NaOH, pH 7.4, 140 mM NaCl, 2.5 mM CaCl2) containing 2.5 mL annexin V-FITC mix and 1 mg/ml PI and analyzed by flow cytometry (FACSCalibur/CELLQuest; Becton Dickinson, Heidelberg, Germany). Whereas early apoptosis is characterized by positive annexin V-FITC staining reaction, cells in a late apoptotic stage lose their membrane integrity and additionally incorporate PI. […] Raw data of three independent measurements were set in relation to their respective DMSO controls, and means and standard deviations were calculated using the Graphpad Prism software (Graphpad, La Jolla, USA).

T1 sequence (P0DMV8 whole entry): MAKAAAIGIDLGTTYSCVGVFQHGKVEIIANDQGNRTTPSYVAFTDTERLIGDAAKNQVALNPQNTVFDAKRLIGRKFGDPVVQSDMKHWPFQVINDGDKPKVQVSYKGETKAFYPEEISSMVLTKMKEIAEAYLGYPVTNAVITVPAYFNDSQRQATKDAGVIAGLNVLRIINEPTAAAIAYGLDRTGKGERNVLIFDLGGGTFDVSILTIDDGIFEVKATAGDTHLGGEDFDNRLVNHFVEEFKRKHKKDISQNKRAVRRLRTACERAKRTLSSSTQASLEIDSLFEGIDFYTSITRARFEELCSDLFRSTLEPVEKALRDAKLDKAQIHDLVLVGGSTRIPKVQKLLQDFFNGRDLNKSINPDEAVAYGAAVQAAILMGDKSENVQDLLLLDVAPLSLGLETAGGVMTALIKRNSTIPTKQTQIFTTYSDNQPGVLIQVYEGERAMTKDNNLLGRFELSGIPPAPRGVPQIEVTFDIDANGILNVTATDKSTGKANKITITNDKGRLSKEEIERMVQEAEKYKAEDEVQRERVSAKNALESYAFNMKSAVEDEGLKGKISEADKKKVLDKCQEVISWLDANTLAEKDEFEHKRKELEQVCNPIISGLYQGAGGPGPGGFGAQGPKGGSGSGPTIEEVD

For `COc1ccc(C2C(C(=O)Nc3cccc(C)n3)c3ccccc3C(=O)N2c2ccccc2)cc1` (stereo not drawn) [trans-7b, trans-3-(4-Methoxyphenyl)-N-(6-methylpyridin-2-yl)-1-oxo-2-phenyl-1,2,3,4-tetrahydroisoquinoline-4-carboxamide], the “nuclear translocation of activated AIF” value [1] was “shifting from the cytosol to the nucleus”, the “HSP72 constitutive expression level” value (HSP72) was “decreases; also recorded: reduced” and the “effect on the apoptotic effect of the HSP90 inhibitor NVP-AUY922 (viability)” value (INA-6 cells) was “strongly enhanced”.
